Consider 1 molecule from patent US12258611B2, “Device for detecting tomato pathogenic fungus and detection method using the same” (Panasonic Intellectual Property Management Co., Ltd., priority 2018, dated 2025).

Common to all, as to assay: hyphae penetrating the artificial cell wall, fludioxonil in culture solution
Assay type in all cases: cell-based

The subject of one assay is Phoma multirostrata. The following applies: Comparative Example 1, fludioxonil 133 mg/L, 25° C., 72 hours. The source says: (§1) Biscogniauxia maritima, Penicillium olsonii, Phoma multirostrata, and Trichoderma asperellum, which are not tomato pathogens but were present on tomato leaves, were sampled from the tomato leaves, isolated, and then inoculated onto a potato dextrose agar medium. The tomato plants serving as the isolation sources were sampled at a plurality of sites. The isolation method was as follows: into a clean resin container or resin bag, several tomato leaves sampled were placed together with a fungus collection solution composed of physiological saline containing 0.1% surfactant Tween 80 (SIGMA-ALDRICH), and stirred for 1 minute to transfer the fungi adhering to the leaves to the fungus collection solution; this fungus collection solution was diluted, and applied to a potato dextrose agar medium containing 100 mg/L of streptomycin sulfate (Wako) by the spread plate culture technique; subsequently, the medium was incubated at 25° C. for several days and, from the produced fungus colonies, the isolation was performed. We requested Tama Laboratory, (general incorporated association) Japan Food Research Laboratories to perform identification. The above-described Biscogniauxia maritima, Penicillium olsonii, Phoma multirostrata, and Trichoderma asperellum isolated and then inoculated onto the potato dextrose agar medium were left static at a temperature of 25° C. for a week. Subsequently, to the potato dextrose agar medium on which the four species of fungi were cultured with sufficient hyphal growth or sufficient sporulation, several milliliters of sterile pure water was dropped; the surface of the hyphae was rubbed with, for example, a platinum loop or a brush, to obtain a disintegrated hypha-spore mixed suspension.
(§2) The above-described container having, at the bottom surface, the artificial cell wall including the polyethylene terephthalate film (substrate) having, on its back surface, the cellulose membrane was placed on a culture medium container (culture-solution storage), to provide a device for detecting a tomato pathogenic fungus. […]

The next assay has as its system Biscogniauxia maritima. The following applies: Comparative Example 1, fludioxonil 133 mg/L, 25° C., 72 hours.
Text: as §1, §2

For another assay, the system named is Penicillium olsonii. To be noted: Comparative Example 1, fludioxonil 133 mg/L, 25° C., 72 hours.
Text: as §1, §2

For the next assay, the system named is Trichoderma asperellum.
Text: as §1, §2

The test system of assay [1] is Pseudocercospora fuligena. The following applies: 25° C., 72 hours. The procedure:
Pseudocercospora fuligena, which is one of tomato pathogens and is a pathogenic fungus that causes tomato Cercospora leaf mold, was inoculated onto a potato dextrose agar medium. Subsequently, the medium was left static at a temperature of 28° C. for a week. Pseudocercospora fuligena was distributed by The Genetic Resources Center, The National Agriculture and Food Research Organization (MAFF No. 306728). Subsequently, hyphae of Pseudocercospora fuligena were transferred from the potato dextrose agar medium to a burdock root powder agar medium, further left static for one to two weeks at a temperature of 28° C.; after hyphae sufficiently grew again, the surface of the hyphae was subjected to a mechanical stress such as rubbing with, for example, a platinum loop or a brush; subsequently, the medium was left under irradiation with black light for four days or longer, subsequently left in a room-temperature environment for two weeks or longer, to promote sporulation again. To the resultant burdock root powder agar medium having cultured Pseudocercospora fuligena, several milliliters of sterile pure water was dropped, and the surface of the hyphae was rubbed with, for example, a platinum loop or a brush, to obtain a disintegrated hypha-spore mixed suspension.
as §2
(§3) Subsequently, sterile purified water was added such that the total volume with such a disintegrated hypha-spore mixed suspension became 200 μL. The tomato-pathogenic-fungus selection method device in which the seven species of fungi were added was left to stand at a temperature of 25° C. for 72 hours, and the number of hyphae penetrating the artificial cell wall and observed at the back surface was visually counted using an optical microscope. […]

A further assay has as its system Botrytis cinerea. The following applies: 25° C., 72 hours. The procedure: Botrytis cinerea, which is one of tomato pathogens and is a pathogenic fungus that causes tomato gray mold, was inoculated onto a potato dextrose agar medium (Difco™ Potato Dextrose Agar). Subsequently, the medium was left static at a temperature of 25° C. for a week. The Botrytis cinerea was given by Associate Professor Shimizu, Faculty of Applied Biological Sciences, Gifu University. Subsequently, the potato dextrose agar medium having cultured Botrytis cinerea with sufficient hyphal growth was left under irradiation with black light for four days or longer, and subsequently left in a room-temperature environment for two weeks or longer, to promote sporulation. To the resultant potato dextrose agar medium having cultured Botrytis cinerea, several milliliters of sterile pure water was dropped, and the surface of the hyphae was rubbed with, for example, a platinum loop or a brush, to obtain a disintegrated hypha-spore mixed suspension.
(§4) The above-described container having, at the bottom surface, the artificial cell wall including the polyethylene terephthalate film (substrate) having, on its back surface, the cellulose membrane was placed on a culture medium container (culture-solution storage), to provide a device for detecting a tomato pathogenic fungus. The culture medium container was a 24-well flat-bottom culture plate (Corning Incorporated, trade name: 24 Well Cell Culture Cluster Flat Bottom). […]
as §3

The subject of a further assay is Passalora fulva. The following applies: 25° C., 72 hours. The protocol: Passalora fulva, which is one of tomato pathogens and is a pathogenic fungus that causes tomato leaf mold, was inoculated onto a potato dextrose agar medium. Subsequently, the medium was left static at a temperature of 23° C. for one to two weeks. Passalora fulva was distributed by The Genetic Resources Center, The National Agriculture and Food Research Organization (MAFF No. 726744). Subsequently, to the potato dextrose agar medium having cultured Passalora fulva with sufficient hyphal growth, several milliliters of sterile pure water was dropped, and the surface of the hyphae was rubbed with, for example, a platinum loop or a brush, to obtain a disintegrated hypha-spore mixed suspension.
as §4, with “Bottom). Between the culture medium container and the artificial-cell-wall-formed container, 600 μL of a liquid culture medium (culture solution) was charged so as to be in contact with the back surface of the artificial-cell-wall-formed container.” for “Bottom).”
as §3

[2] abbreviates: Comparative Example 1, fludioxonil 133 mg/L.
[3] abbreviates: Example 1, fludioxonil 0.5 mg/L.
[4] abbreviates: Example 2, fludioxonil 1.3 mg/L.

As to `N#Cc1c[nH]cc1-c1cccc2c1OC(F)(F)O2` [fludioxonil], the “hyphae penetrating the artificial cell wall” value with Phoma multirostrata is on record as “not observed”; in the assay with Biscogniauxia maritima, “not observed”; in the assay with Penicillium olsonii it was “not observed”; in the assay with Trichoderma asperellum (Comparative Example 1, fludioxonil 133 mg/L, 25° C., 72 hours) it was “not observed”; in assay [1] (setting [2]), “not observed”; in assay [1] (setting [3]), “had hyphae penetrating the artificial cell wall”. Further, the “hyphae penetrating the artificial cell wall” value was “had hyphae penetrating the artificial cell wall” in assay [1] (setting [4]); “not observed” with Botrytis cinerea (setting [2]); “had hyphae penetrating the artificial cell wall” in the assay on Botrytis cinerea (setting [3]); “had hyphae penetrating the artificial cell wall” in the assay with Botrytis cinerea (setting [4]); “not observed” in the assay on Passalora fulva (setting [2]); “had hyphae penetrating the artificial cell wall” in the assay with Passalora fulva (setting [3]). For the same molecule, in the assay on Passalora fulva (setting [4]), the “hyphae penetrating the artificial cell wall” value is listed as “had hyphae penetrating the artificial cell wall”. In addition, the “effect of excluding Trichoderma asperellum (number of hyphae penetrating the artificial cell walls)” value in the assay on Trichoderma asperellum (Comparative Example 2, fludioxonil 0.1 mg/L (1/1000 of the concentration that provides the agricultural chemical effect)) was “not observed”. Also, the “growth of Trichoderma asperellum (number of hyphae penetrating the artificial cell walls)” value with Trichoderma asperellum (Comparative Example 2, fludioxonil 0.5 mg/L (1/250 of the concentration that provides the agricultural chemical effect)) is listed as “inhibited”.
